# Laboratory results from US20240376099A1, “COMPOUNDS AND COMPOSITIONS AS INHIBITORS OF ENDOSOMAL TOLL-LIKE RECEPTORS” (Novartis AG, priority 2016, published 2024).
# Molecular target: T1, TLR9 (Homo sapiens, UniProt Q9NR96)
# T1 construct: Fresh blood was collected from normal human donors; endogenous in cells; host or cells: human PBMCs from fresh donor blood
# T1 sequence (Q9NR96 26-1032): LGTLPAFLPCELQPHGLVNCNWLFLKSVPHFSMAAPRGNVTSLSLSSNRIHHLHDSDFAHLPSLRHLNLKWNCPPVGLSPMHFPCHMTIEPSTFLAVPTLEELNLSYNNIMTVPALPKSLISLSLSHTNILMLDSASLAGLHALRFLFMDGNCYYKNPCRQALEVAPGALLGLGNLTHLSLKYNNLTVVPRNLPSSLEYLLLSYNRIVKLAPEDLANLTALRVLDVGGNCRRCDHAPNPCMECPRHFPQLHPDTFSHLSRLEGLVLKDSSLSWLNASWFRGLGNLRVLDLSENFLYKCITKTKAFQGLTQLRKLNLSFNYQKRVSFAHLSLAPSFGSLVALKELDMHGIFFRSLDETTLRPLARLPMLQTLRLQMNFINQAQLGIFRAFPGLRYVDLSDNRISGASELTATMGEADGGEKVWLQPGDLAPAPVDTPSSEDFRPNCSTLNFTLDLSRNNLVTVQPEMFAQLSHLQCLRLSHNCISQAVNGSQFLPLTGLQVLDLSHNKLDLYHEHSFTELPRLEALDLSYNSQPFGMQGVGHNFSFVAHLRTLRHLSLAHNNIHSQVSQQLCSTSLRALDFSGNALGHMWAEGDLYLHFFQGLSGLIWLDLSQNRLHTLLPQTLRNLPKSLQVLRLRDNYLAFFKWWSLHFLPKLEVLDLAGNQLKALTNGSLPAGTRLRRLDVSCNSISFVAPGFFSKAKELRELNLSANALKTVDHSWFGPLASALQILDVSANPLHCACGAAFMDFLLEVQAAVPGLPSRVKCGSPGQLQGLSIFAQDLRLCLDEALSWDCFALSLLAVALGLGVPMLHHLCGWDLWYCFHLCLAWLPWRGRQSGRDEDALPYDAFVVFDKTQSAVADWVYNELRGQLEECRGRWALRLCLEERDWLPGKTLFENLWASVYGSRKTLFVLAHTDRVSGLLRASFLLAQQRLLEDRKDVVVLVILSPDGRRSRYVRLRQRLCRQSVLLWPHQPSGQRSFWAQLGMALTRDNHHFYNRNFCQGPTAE
# Assay: huPBMC TLR9 Antagonist IFNα Assay
# Format: cell-based
# Details: human PBMCs stimulated with ODN2216 0.3 μM, 14-16 hrs; IFNα2b AlphaLISA read-out
# Outline: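 Human PBMCs from fresh donor blood (150,000 cells/well) stimulated 14–16 h at 37 °C with DOTAP-complexed ssRNA40 (final 1 μg/ml for TLR8, 10 μg/mL for TLR7) or ODN2216 (final 0.3 μM, TLR9), 0.25% DMSO, ten-point 1/3 compound dilutions. Supernatant IL-6 read by HTRF (TLR8); IFNα by IFNα2b AlphaLISA (TLR7/TLR9).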
row,SMILES,IC50
1,"Cc1nc(N2CCc3c(c(C)nn3CC34CCC(N(C5CCC5)C5CCC5)(CC3)CC4)C2)c2c(n1)c(C)nn2C [compound 28, N,N-dicyclobutyl-4-((3-methyl-5-(1,3,5-trimethyl-1H-pyrazolo[4,3-d]pyrimidin-7-yl)-4,5,6,7-tetrahydro-1H-pyrazolo[4,3-c]pyridin-1-yl)methyl)bicyclo[2.2.2]octan-1-amine]",> 10000 nM
2,"Cc1nc(N2CCc3c(c(C)nn3CC34CCC(N5CCCCC5)(CC3)CC4)C2)c2cn[nH]c2n1 [compound 29, 6-methyl-4-(3-methyl-1-((4-(piperidin-1-yl)bicyclo[2.2.2]octan-1-yl)methyl)-6,7-dihydro-1H-pyrazolo[4,3-c]pyridin-5(4H)-yl)-1H-pyrazolo[3,4-d]pyrimidine]",> 10000 nM
3,"Cc1nc(N2CCc3c(c(C)nn3CC34CCC(N5CCCC5)(CC3)CC4)C2)c2cn[nH]c2n1 [compound 30, 6-methyl-4-(3-methyl-1-((4-(pyrrolidin-1-yl)bicyclo[2.2.2]octan-1-yl)methyl)-6,7-dihydro-1H-pyrazolo[4,3-c]pyridin-5(4H)-yl)-1H-pyrazolo[3,4-d]pyrimidine]",> 10000 nM
4,"Cc1nc(N2CCc3c(c(C)nn3CC34CCC(NCC5(CO)COC5)(CC3)CC4)C2)c2c(n1)c(C)nn2C [compound 31, (3-(((4-((3-methyl-5-(1,3,5-trimethyl-1H-pyrazolo[4,3-d]pyrimidin-7-yl)-4,5,6,7-tetrahydro-1H-pyrazolo[4,3-c]pyridin-1-yl)methyl)bicyclo[2.2.2]octan-1-yl)amino)methyl)oxetan-3-yl)methanol]",2340 nM
5,"Cc1nc(N2CCc3c(c(C)nn3CC34CCC(NC(=O)[C@@H]5COCCN5)(CC3)CC4)C2)c2c(n1)c(C)nn2C [compound 33, (S)-N-(4-((3-methyl-5-(1,3,5-trimethyl-1H-pyrazolo[4,3-d]pyrimidin-7-yl)-4,5,6,7-tetrahydro-1H-pyrazolo[4,3-c]pyridin-1-yl)methyl)bicyclo[2.2.2]octan-1-yl)morpholine-3-carboxamide]",> 10000 nM
6,"Cc1nc(N2CCc3c(c(C)nn3CC34CCC(NC(=O)[C@@H]5CNCCO5)(CC3)CC4)C2)c2c(n1)c(C)nn2C [compound 34, (S)-N-(4-((3-methyl-5-(1,3,5-trimethyl-1H-pyrazolo[4,3-d]pyrimidin-7-yl)-4,5,6,7-tetrahydro-1H-pyrazolo[4,3-c]pyridin-1-yl)methyl)bicyclo[2.2.2]octan-1-yl)morpholine-2-carboxamide]",5700 nM
7,"Cc1nc(N2CCc3c(c(C)nn3CC34CCC(NC(=O)[C@H]5CNCCO5)(CC3)CC4)C2)c2c(n1)c(C)nn2C [compound 36, (R)-N-(4-((3-methyl-5-(1,3,5-trimethyl-1H-pyrazolo[4,3-d]pyrimidin-7-yl)-4,5,6,7-tetrahydro-1H-pyrazolo[4,3-c]pyridin-1-yl)methyl)bicyclo[2.2.2]octan-1-yl)morpholine-2-carboxamide]",4970 nM
8,"Cc1nc(N2CCc3c(c(C)nn3CC34CCC(N5CCOCC5)(CC3)CC4)C2)c2c(C)noc2n1 [compound 37, 3,6-dimethyl-4-(3-methyl-1-((4-morpholinobicyclo[2.2.2]octan-1-yl)methyl)-6,7-dihydro-1H-pyrazolo[4,3-c]pyridin-5(4H)-yl)isoxazolo[5,4-d]pyrimidine]",> 10000 nM
9,"Cc1nc(N2CCc3c(c(C)nn3CC34CCC(N5CCCCC5)(CC3)CC4)C2)c2c(n1)c(C)nn2C [compound 38, 1,3,5-trimethyl-7-(3-methyl-1-((4-(piperidin-1-yl)bicyclo[2.2.2]octan-1-yl)methyl)-6,7-dihydro-1H-pyrazolo[4,3-c]pyridin-5(4H)-yl)-1H-pyrazolo[4,3-d]pyrimidine]",> 10000 nM
10,"Cc1nc(N2CCc3c(c(C)nn3CC34CCC(N5CCCCC5)(CC3)CC4)C2)c2cnn(C)c2n1 [compound 39, 1,6-dimethyl-4-(3-methyl-1-((4-(piperidin-1-yl)bicyclo[2.2.2]octan-1-yl)methyl)-6,7-dihydro-1H-pyrazolo[4,3-c]pyridin-5(4H)-yl)-1H-pyrazolo[3,4-c]pyrimidine]",> 10000 nM
11,"[2H]C([2H])([2H])N(C([2H])([2H])[2H])C12CCC(Cn3nc(C)c4c3CCN(c3nc(C)nc5c(C)nn(C)c35)C4)(CC1)CC2 [compound 40, 4-((3-methyl-5-(1,3,5-trimethyl-1H-pyrazolo[4,3-d]pyrimidin-7-yl)-4,5,6,7-tetrahydro-1H-pyrazolo[4,3-c]pyridin-1-yl)methyl)-N,N-bis(trideuteromethyl)bicyclo[2.2.2]octan-1-amine]",2520 nM
12,"Cc1nn(CC23CCC(N)(CC2)CC3)c2c1CN(c1ccnc3[nH]ncc13)CC2 [compound 41, 4-((3-methyl-5-(1H-pyrazolo[3,4-b]pyridin-4-yl)-4,5,6,7-tetrahydro-1H-pyrazolo[4,3-c]pyridin-1-yl)methyl)bicyclo[2.2.2]octan-1-amine]",817 nM
13,"Cc1c2c(nn1CC13CCC(N)(CC1)CC3)CCN(c1ccnc3[nH]ncc13)C2 [compound 42, 4-((3-methyl-5-(1H-pyrazolo[3,4-b]pyridin-4-yl)-4,5,6,7-tetrahydro-2H-pyrazolo[4,3-c]pyridin-2-yl)methyl)bicyclo[2.2.2]octan-1-amine]",472 nM
14,"Cc1cc(N2CCc3c(c(C)nn3CC34CCC(N)(CC3)C4)C2)c2cnn(C)c2n1 [compound 44, 4-((5-(1,6-dimethyl-1H-pyrazolo[3,4-b]pyridin-4-yl)-3-methyl-4,5,6,7-tetrahydro-1H-pyrazolo[4,3-c]pyridin-1-yl)methyl)bicyclo[2.2.1]heptan-1-amine]",1210 nM
15,"Cc1cc(N2CCc3c(c(C(F)(F)F)nn3CC34CCC(N)(CC3)CC4)C2)c2cnn(C)c2n1 [compound 45, 4-((5-(1,6-dimethyl-1H-pyrazolo[3,4-b]pyridin-4-yl)-3-(trifluoromethyl)-4,5,6,7-tetrahydro-1H-pyrazolo[4,3-c]pyridin-1-yl)methyl)bicyclo[2.2.2]octan-1-amine]",2060 nM
16,"Cc1cc(N2CCc3c(c(C)nn3CC34CCC(NCC(=O)N5CCCCC5)(CC3)CC4)C2)c2cnn(C)c2n1 [compound 99, 2-((4-((5-(1,6-dimethyl-1H-pyrazolo[3,4-b]pyridin-4-yl)-3-methyl-4,5,6,7-tetrahydro-1H-pyrazolo[4,3-c]pyridin-1-yl)methyl)bicyclo[2.2.2]octan-1-yl)amino)-1-(piperidin-1-yl)ethanone]",2840 nM
17,"Cc1cc(N2CCc3c(c(C)nn3CC34CCC(NC(=O)CN5CCCC5)(CC3)CC4)C2)c2cnn(C)c2n1 [compound 100, N-(4-((5-(1,6-dimethyl-1H-pyrazolo[3,4-b]pyridin-4-yl)-3-methyl-4,5,6,7-tetrahydro-1H-pyrazolo[4,3-c]pyridin-1-yl)methyl)bicyclo[2.2.2]octan-1-yl)-2-(pyrrolidin-1-yl)acetamide]",1360 nM
18,"COCCNC12CCC(Cn3nc(C)c4c3CCN(c3cc(C)nc5c3cnn5C)C4)(CC1)OC2 [compound 102, 1-((5-(1,6-dimethyl-1H-pyrazolo[3,4-b]pyridin-4-yl)-3-methyl-4,5,6,7-tetrahydro-1H-pyrazolo[4,3-c]pyridin-1-yl)methyl)-N-(2-methoxyethyl)-2-oxabicyclo[2.2.2]octan-4-amine]",1240 nM
